Experimental findings from patent publication US10538498B2, “1,3,4-oxadiazole sulfonamide derivative compounds as histone deacetylase 6 inhibitor, and the pharmaceutical composition comprising the same” (Chong Kun Dang Pharmaceutical Corp., priority 2015, dated 2020) are described below.

SMILES strings stand for the structures.

The test addresses T1, human recombinant HDAC6 (Homo sapiens, UniProt Q9UBN7).
T1 construct: purchased Calbiochem 382180
T1 sequence (Q9UBN7 1-1215): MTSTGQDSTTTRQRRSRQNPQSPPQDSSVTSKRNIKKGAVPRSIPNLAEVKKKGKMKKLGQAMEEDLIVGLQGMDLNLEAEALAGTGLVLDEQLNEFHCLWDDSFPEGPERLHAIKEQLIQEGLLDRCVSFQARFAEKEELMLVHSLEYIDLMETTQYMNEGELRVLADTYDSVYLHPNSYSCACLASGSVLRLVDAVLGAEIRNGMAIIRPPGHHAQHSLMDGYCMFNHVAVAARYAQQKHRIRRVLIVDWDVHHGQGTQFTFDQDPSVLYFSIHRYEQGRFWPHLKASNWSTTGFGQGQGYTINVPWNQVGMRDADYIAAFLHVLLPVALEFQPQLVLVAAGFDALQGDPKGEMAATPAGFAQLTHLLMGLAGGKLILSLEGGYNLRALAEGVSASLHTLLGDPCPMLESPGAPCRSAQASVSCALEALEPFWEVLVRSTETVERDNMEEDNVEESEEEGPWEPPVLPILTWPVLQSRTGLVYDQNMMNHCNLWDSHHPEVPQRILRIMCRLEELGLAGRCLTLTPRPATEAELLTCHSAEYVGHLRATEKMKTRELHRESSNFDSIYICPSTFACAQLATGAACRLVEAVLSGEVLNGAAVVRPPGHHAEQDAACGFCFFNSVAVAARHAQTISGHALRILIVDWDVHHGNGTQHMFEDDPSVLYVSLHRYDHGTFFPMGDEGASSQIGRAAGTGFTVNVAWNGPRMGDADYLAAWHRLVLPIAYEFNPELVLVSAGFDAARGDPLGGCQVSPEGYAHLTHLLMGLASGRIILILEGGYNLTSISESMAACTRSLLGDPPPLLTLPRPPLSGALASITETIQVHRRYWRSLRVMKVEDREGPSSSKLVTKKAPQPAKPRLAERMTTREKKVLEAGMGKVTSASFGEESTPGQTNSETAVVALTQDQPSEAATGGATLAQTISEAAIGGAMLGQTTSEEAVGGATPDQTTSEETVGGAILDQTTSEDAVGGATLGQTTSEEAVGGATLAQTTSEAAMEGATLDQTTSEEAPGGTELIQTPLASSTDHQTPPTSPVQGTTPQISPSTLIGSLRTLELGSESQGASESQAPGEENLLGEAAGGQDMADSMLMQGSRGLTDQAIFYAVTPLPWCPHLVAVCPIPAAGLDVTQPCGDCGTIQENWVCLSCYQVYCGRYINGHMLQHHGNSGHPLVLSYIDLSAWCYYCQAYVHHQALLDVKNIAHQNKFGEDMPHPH
In words: HDAC6 enzyme activity inhibition assay (HDAC Fluorimetric Drug Discovery Kit). The test is classed as biochemical. The conditions noted are these: for HDAC6 selectivity (fold): HDAC1 vs HDAC6; for IC50: same protocol as the HDAC1 enzyme activity test. In outline: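 First, compound in 5-fold dilution steps is combined with 0.3 μg enzyme and 10 μM Fluor de Lys-SIRT1 substrate. After 60 min at 30° C, developer is added for 30 min. Fluorescence at Ex 360/Em 460 then gives IC50 values.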

For `Cc1cccc(N(Cc2ccc(-c3nnc(C(F)F)o3)cc2)S(=O)(=O)C2CCN(C3CC4CCC3C4)CC2)c1` (stereo not drawn) [Compound 11693, 1-(bicyclo[2.2.1]heptan-2-yl)-N-(4-(5-(difluoromethyl)-1,3,4-oxadiazol-2-yl)benzyl)-N-(m-tolyl)piperidine-4-sulfonamide], the “HDAC6 selectivity (fold)” value stood at 198 fold and the IC50 worked out at 504 nM.
The like results for `CS(=O)(=O)N(Cc1ccc(-c2nnc(C(F)F)o2)cc1)c1ccc(Br)cn1` [Compound 11347, N-(5-bromopyridin-2-yl)-N-(4-(5-(difluoromethyl)-1,3,4-oxadiazol-2-yl)benzyl)methanesulfonamide] were, in that order, 971 fold and 103 nM.
The like results for `CN1Cc2ccc(N(Cc3ccc(-c4nnc(C(F)F)o4)cn3)S(C)(=O)=O)cc2C1` [Compound 11733, N-((5-(5-(difluoromethyl)-1,3,4-oxadiazol-2-yl)pyridin-2-yl)methyl)-N-(2-methylisoindolin-5-yl)methanesulfonamide] were, in that order, 203 fold and 490 nM.
For the compound `Cc1cccc(N(Cc2ccc(-c3nnc(C(F)F)o3)cn2)S(=O)(=O)C2CCN(C3CN(C(C)C)C3)CC2)c1` [Compound 11837, N-((5-(5-(difluoromethyl)-1,3,4-oxadiazol-2-yl)pyridin-2-yl)methyl)-1-(1-isopropylazetidin-3-yl)-N-(m-tolyl)piperidine-4-sulfonamide], the “HDAC6 selectivity (fold)” value amounted to 4167 fold and the IC50 was 24 nM.
`CS(=O)(=O)N(Cc1ccc(-c2nnc(C(F)F)o2)cn1)c1cccc(Br)c1` [Compound 11354, N-(3-bromophenyl)-N-((5-(5-(difluoromethyl)-1,3,4-oxadiazol-2-yl)pyridin-2-yl)methyl)methanesulfonamide]: the “HDAC6 selectivity (fold)” value came to 12500 fold and the IC50 was found to be 8 nM.
For the compound `O=S(=O)(C1CCN(C2CC(O)C2)CC1)N(Cc1ccc(-c2nnc(C(F)F)o2)cc1)c1cccc(Cl)c1` (stereo not drawn) [Compound 11793, N-(3-chlorophenyl)-N-(4-(5-(difluoromethyl)-1,3,4-oxadiazol-2-yl)benzyl)-1-(3-hydroxycyclobutyl)piperidine-4-sulfonamide], the “HDAC6 selectivity (fold)” value is on record as 1718 fold and the IC50 worked out at 58.2 nM.
The like results for `CC(C)N1CC(N2CCC(S(=O)(=O)N(Cc3ccc(-c4nnc(C(F)F)o4)cn3)c3cccc(Cl)c3)CC2)C1` [Compound 11781, N-(3-chlorophenyl)-N-((5-(5-(difluoromethyl)-1,3,4-oxadiazol-2-yl)pyridin-2-yl)methyl)-1-(1-isopropylazetidin-3-yl)piperidine-4-sulfonamide] were, in that order, 5319 fold and 18.8 nM.
On the same counts, the results for `CC(=O)N1CC(N2CCC(S(=O)(=O)N(Cc3ccc(-c4nnc(C(F)F)o4)cc3)c3cccc(Cl)c3)CC2)C1` [Compound 11779, 1-(1-acetylazetidin-3-yl)-N-(3-chlorophenyl)-N-(4-(5-(difluoromethyl)-1,3,4-oxadiazol-2-yl)benzyl)piperidine-4-sulfonamide] are 2493 fold and 40.1 nM.
In the case of `O=S(=O)(c1cccnc1)N(Cc1ccc(-c2nnc(C(F)(F)F)o2)cc1)c1cccc(F)c1` [Compound 11155, N-(3-fluorophenyl)-N-(4-(5-(trifluoromethyl)-1,3,4-oxadiazol-2-yl)benzyl)pyridine-3-sulfonamide], the “HDAC6 selectivity (fold)” value was 1250 fold and the IC50 came out at 80 nM.
On the same counts, the results for `CCS(=O)(=O)N(Cc1ccc(-c2nnc(C(F)F)o2)cn1)c1ccc2cnn(C)c2c1` [Compound 11540, N-((5-(5-(difluoromethyl)-1,3,4-oxadiazol-2-yl)pyridin-2-yl)methyl)-N-(1-methyl-1H-indazol-6-yl)ethanesulfonamide] are 10000 fold and 10 nM.
On the same counts, the results for `CC(C)(O)CN1CCC(S(=O)(=O)N(Cc2ccc(-c3nnc(C(F)F)o3)cc2F)c2ccccc2)CC1` [Compound 11377, N-(4-(5-(difluoromethyl)-1,3,4-oxadiazol-2-yl)-2-fluorobenzyl)-1-(2-hydroxy-2-methylpropyl)-N-phenylpiperidine-4-sulfonamide] are 4545 fold and 22 nM.
As to `CS(=O)(=O)N(Cc1ccc(-c2nnc(C(F)(F)F)o2)cn1)c1cccc(C(F)(F)F)c1` [Compound 11323, N-((5-(5-(trifluoromethyl)-1,3,4-oxadiazol-2-yl)pyridin-2-yl)methyl)-N-(3-(trifluoromethyl)phenyl)methanesulfonamide], the “HDAC6 selectivity (fold)” value is 909 fold and the half-maximal inhibitory concentration (IC50) was 110 nM.
Take `CCC(=O)N1CC(N2CCC(S(=O)(=O)N(Cc3ccc(-c4nnc(C(F)F)o4)cc3)c3cccc(Cl)c3)CC2)C1` [Compound 11780, N-(3-chlorophenyl)-N-(4-(5-(difluoromethyl)-1,3,4-oxadiazol-2-yl)benzyl)-1-(1-propionylazetidin-3-yl)piperidine-4-sulfonamide]: the “HDAC6 selectivity (fold)” value stood at 1893 fold and the half-maximal inhibitory concentration (IC50) came out at 52.8 nM.
The like results for `CS(=O)(=O)N(Cc1ccc(-c2nnc(C(F)(F)F)o2)cc1)Cc1ccccn1` [Compound 11045, N-(pyridin-2-ylmethyl)-N-(4-(5-(trifluoromethyl)-1,3,4-oxadiazol-2-yl)benzyl)methanesulfonamide] were, in that order, 633 fold and 158 nM.
As to `CCCS(=O)(=O)N(Cc1ccc(-c2nnc(C(F)F)o2)cc1F)c1ccccc1` [Compound 11289, N-(4-(5-(difluoromethyl)-1,3,4-oxadiazol-2-yl)-2-fluorobenzyl)-N-phenylpropane-1-sulfonamide], the “HDAC6 selectivity (fold)” value was 3571 fold and the IC50 worked out at 28 nM.
On the same counts, the results for `O=S(=O)(CCn1cncn1)N(Cc1ccc(-c2nnc(C(F)F)o2)cc1)c1ccccc1` [Compound 11809, N-(4-(5-(difluoromethyl)-1,3,4-oxadiazol-2-yl)benzyl)-N-phenyl-2-(1H-1,2,4-triazol-1-yl)ethane-1-sulfonamide] are 3222 fold and 30.1 nM.
On the same counts, the results for `O=S(=O)(C1CCN(C2CC(F)C2)CC1)N(Cc1ccc(-c2nnc(C(F)F)o2)cn1)c1cccc(Cl)c1` (stereo not drawn) [Compound 11841, N-(3-chlorophenyl)-N-((5-(5-(difluoromethyl)-1,3,4-oxadiazol-2-yl)pyridin-2-yl)methyl)-1-(3-fluorocyclobutyl)piperidine-4-sulfonamide] are 2790 fold and 35.8 nM.
The like results for `Cc1noc(C2CCN(CCS(=O)(=O)N(Cc3ccc(-c4nnc(C(F)F)o4)cc3)c3ccccc3)CC2)n1` [Compound 11764, N-(4-(5-(difluoromethyl)-1,3,4-oxadiazol-2-yl)benzyl)-2-(4-(3-methyl-1,2,4-oxadiazol-5-yl)piperidin-1-yl)-N-phenylethane-1-sulfonamide] were, in that order, 731 fold and 137 nM.
Turning to `CN1Cc2ccc(N(Cc3ccc(-c4nnc(C(F)F)o4)cc3)S(C)(=O)=O)cc2C1` [Compound 11729, N-(4-(5-(difluoromethyl)-1,3,4-oxadiazol-2-yl)benzyl)-N-(2-methylisoindolin-5-yl)methanesulfonamide], the “HDAC6 selectivity (fold)” value was determined as 56 fold and the concentration for half-maximal inhibition (IC50) worked out at 1760 nM.
On the same counts, the results for `CS(=O)(=O)N(Cc1ccccn1)Cc1ccc(-c2nnc(C(F)(F)F)o2)cn1` [Compound 11128, N-(pyridin-2-ylmethyl)-N-((5-(5-(trifluoromethyl)-1,3,4-oxadiazol-2-yl)pyridin-2-yl)methyl)methanesulfonamide] are 192 fold and 520 nM.
Consider `O=S(=O)(CCN1CCC1)N(Cc1ccc(-c2nnc(C(F)F)o2)cc1)c1ccccc1` [Compound 11738, 2-(azetidin-1-yl)-N-(4-(5-(difluoromethyl)-1,3,4-oxadiazol-2-yl)benzyl)-N-phenylethanesulfonamide], for which the “HDAC6 selectivity (fold)” value worked out at 1466 fold and the IC50 was 68.2 nM.
